In patent publication US20240215910A1, “A METHOD FOR […] PRO-OR ANTI […] TEST COMPOUNDS” (GW Research Limited, priority 2020, published 2024):

Key:
[1] = system: tonic hind limb extensor convulsion from a single electroshock; assay: mini-MEST: maximal electroshock seizure threshold test using minimal sample sizes (n=6/group, log-scale current steps); conditions: for % change from vehicle / CC50 ± SEM: N=6
Text: (§1) All animals were weighed at the beginning of the study and assigned to treatment groups (n=6/group) based on a mean distribution of body weight across groups.
(§2) The first animal within a treatment group was given a shock at the expected or estimated CC50 current. For subsequent animals, the current was lowered or raised depending on the convulsion outcome from the preceding animal in log scale intervals. Data generated from each treatment group were used to calculate the CC50±SEM values for the treatment group (see Table 5 for details).
as §1
as §2, with “Table 10” for “Table 5”
as §1
as §2, with “Table 15” for “Table 5”

[2] = system: tonic hind limb extensor convulsion from a single electroshock; mouse model of generalised seizure; assay: standard maximal electroshock seizure threshold (MEST) test (n=12/group, 5 mA intervals); conditions: Example 4, 30 min post dose; for CC50 +/− SEM: vehicle CC50 24.3
Description: The efficacy of Compound 3 was tested in a mouse model of generalised seizure, the maximal electroshock seizure threshold (MEST) test.
All animals were weighed at the beginning of the study and randomly assigned to treatment groups (n=12/group) based on a mean distribution of body weight across groups.
The first animal within a treatment group was given a shock at the expected or
estimated CC50 current. For subsequent animals, the current was lowered or raised depending on the convulsions outcome from the preceding animal in 5 mA intervals.
Data generated from each treatment group were used to calculate the CC50±SEM values for the treatment group.
Test compound effects were also calculated as percentage change in CC50 from the vehicle control group.
Significant difference between drug-treated animals and controls were assessed according to Litchfield and Wilcoxon (1949).

C=C(C)[C@@H]1CCC(C)=C[C@H]1c1c(O)cc(-c2cnn(CC(C)(C)C)c2)cc1O [Compound 1]
% change from vehicle ([1]; Example 1, 50 mg/kg i.p., 30 min post dose): 388%
CC50 ± SEM ([1]; Example 1, 50 mg/kg i.p., 30 min post dose, vehicle CC50 24.5): 119.5 mA

C=C(C)[C@@H]1CCC(C)=C[C@H]1c1c(O)cc(-c2cn(C)nn2)cc1O [Compound 2]
% change from vehicle ([1]; Example 2, 5 mg/kg i.p., 15 min post dose): 26%
CC50 ± SEM ([1]; Example 2, 5 mg/kg i.p., 15 min post dose, vehicle CC50 22.5): 28.3 +/− 1.1 mA
% change from vehicle ([1]; Example 2, 50 mg/kg i.p., 30 min post dose): 213%
CC50 ± SEM ([1]; Example 2, 50 mg/kg i.p., 30 min post dose, vehicle CC50 22.5): 70.5 +/− 5.8 mA

C=C(C)[C@@H]1CCC(C)=C[C@H]1c1c(O)cc(-c2cnn(C)c2)cc1O [Compound 3]
% change from vehicle ([1]; Example 3, 200 mg/kg i.p., 120 min post dose): >636%
CC50 ± SEM ([1]; Example 3, 200 mg/kg i.p., 120 min post dose, no "+" seen, vehicle CC50 23.5): >173 mA
seizure threshold as compared to vehicle (in words) ([1]; Example 3, 200 mg/kg i.p., 120 mins before testing): clear increase in seizure threshold
% change from vehicle ([2]; 2 mg/kg i.p., N=12): 27%
CC50 +/− SEM ([2]; 2 mg/kg i.p., N=12): 30.8 ± 1.0 mA
% change from vehicle ([2]; 20 mg/kg i.p., N=12): 116%
CC50 +/− SEM ([2]; 20 mg/kg i.p., N=12): 52.5 ± 1.3 mA
% change from vehicle ([2]; 200 mg/kg i.p., N=12): 712%
CC50 +/− SEM ([2]; 200 mg/kg i.p., N=12): 197.5 ± 20.4 mA
effect on MEST across doses (in words) ([2]; 2, 20 and 200 mg/kg i.p.): dose-related increase in MEST

CN1C(=O)CN=C(c2ccccc2)c2cc(Cl)ccc21 [Diazepam, diazepam, reference compound]
% change from vehicle ([1]; Example 1, 2.5 mg/kg i.p., 30 min post dose): 206%
% change from vehicle ([1]; Example 2, 2.5 mg/kg i.p., 30 min post dose): 296%
% change from vehicle ([1]; Example 3, 2.5 mg/kg i.p., 30 min post dose): 98%
% change from vehicle ([2]; 2.5 mg/kg i.p., N=11): 223%
